Laboratory results taken from patent US20210085699A1, “COMBINATION THERAPIES FOR TREATING CANCERS” (priority 2018, published 2021).

Key:
[1] = tested on: spontaneously arising lymphomas; assay: 2DG in drinking water, spontaneous lymphomas of SJL.CD8a−/− mice; format: in vivo, mouse
Text: To test the extent to which inhibition of glycolysis by 2DG alleviated these spontaneously arising lymphomas, a cohort of SJL.CD8a−/− female mice were aged to […] of age and were monitored for signs of lymphoma development. Visible growth was most evident in cervical lymph nodes and in some cases in spleens (indicated by arrows, FIG. 1A). Once tumors were sufficiently large to palpate, mice were placed on water with 6 g/L of dissolved 2DG provided ad libitum and monitored weekly for tumor reduction. […] Photographs of the tumors were taken weekly to document disease regression, and the time points, in weeks, at which the tumors visibly shrank or, later, reemerged, were recorded.
Female SJL.CD8a−/− mice were obtained from the Jackson Laboratory. Mice were aged and checked weekly for splenic or lymphatic tumors. […] Tumors were monitored and photographed weekly for signs of disease regression or progression.
SJL.CD8a−/− female mice were aged and monitored for signs of tumor development weekly after reaching 6 months of age. Tumors were found on mice in between 7 to 12 months of age. Once tumors had reached a clearly visible size, the mice were given water with 6 g/L of dissolved 2DG provided ad libitum. This concentration of 2DG in the water supplied the mice with a daily dose of approximately 960 mg/kg of 2DG. Mice were monitored weekly to determine changes in tumor mass. Photographs of the tumors were taken weekly to gauge whether the tumor was shrinking, expanding, or maintaining their size and to provide an estimate of the overall health of the mice. Treatments lasted for 11 weeks or until the tumors returned and mice became too sick to continue in the study. The treatment of one mouse was carried out to week 16 to determine what, if any, side effects would occur with prolonged 2DG exposure. […] Dates on which tumor shrinkage was observed, as well as dates on which tumor reemergence was observed, were recorded.

CCRF-SB cells = assay: CCRF-SB xenograft in NRG mice, tumor burden by human CD19+ cells; format: in vivo; details: 200 μL of 600 mM 2DG I.P. three times per week for two weeks, vs glucose
Protocol: (§1) To test that hypothesis, the two cell lines were tested for 2DG sensitivity in vivo: immunodeficient NOD.Cg-Rag1^tm1MomIl2rg^tm1Wjl/SzJ (NRG™) mice were xenografted with either MEC1 or CCRF-SB cells, and the mice were then treated with 200 μL of 600 mM 2DG or glucose I.P. three times per week for two weeks. Both MEC1 and CCRF-SB cells migrate to the spleen and bone marrow, and since these mice […] CD19+ B-cells, the tumor burden can be measured terminally in these organs by anti-human CD19 staining via flow cytometry after euthanasia at the end of the treatment period.
(§2) Human cancer cell lines were xenografted into NRG mice in the following way: Cells grown in flasks were given fresh media the night before xenograftment and seeded at 10^6 cells per mL. The next day, the cells were washed twice with DPBS without calcium or magnesium and resuspended to 1-2×10^8 cells per mL of DPBS at room temperature and immediately injected via tail vein at 100 μL per mouse. The cells were given 7-10 days to fully xenograft, after which tumor load in the blood was assessed via flow cytometry (FACSCaliber II) for human CD19+ cells (Antibody cat no. 555413, BD Parmingen). […] Upon euthanasia, the spleen and the bone marrow were harvested and stained for human CD19, and the cells were measured by flow cytometry on the FACSCaliber II. […]

MEC1 cells [2] = assay: Ex vivo growth/survival of MEC1 cells; format: cell-based, human
MEC1 cells [3] = assay: MEC1 xenograft in NRG mice, tumor burden by human CD19+ cells (flow cytometry); format: in vivo
Protocol: as §1
Because DIDS was effective in reducing numbers of MEC1 B-cells ex vivo, its effectiveness was tested in vivo. […] MEC1 cells were xenografted into immunodeficient NRG™ mice for two weeks, and mice were then treated either with DIDS at 50 mg/kg or with a 0.1 M potassium bicarbonate/PBS vehicle, once per week for an additional two weeks. NRG™ mice were used because they were deficient in CD19 cells, allowing quantification of MEC1 B-cells by staining spleen cells for human CD19, as the spleen is a homing organ for MEC1 B-cells, all of which are positive for CD19.
Mice were treated I.P. three times weekly for two weeks. 1) mice were dosed I.P. with 10 mg/kg DIDS, a fifth of the dose required to elicit an effect in vivo (FIG. 4D); 2) mice were treated I.P. with 220 mg/kg of 2DG or glucose; a third of the dose of 2DG required for an effect (FIG. 3C); 3) mice were treated with both DIDS and 2DG, at the same doses used in the first two groups; 4) as a positive control, mice were treated with fludarabine, a compound frequently used to treat CLL, at 35 mg/kg, a dose commonly used to elicit an effect; and 5) as a negative control, mice were treated with vehicle consisting of glucose in PBS (41). Following the 2-week treatment period, bone marrow and spleens were assessed for tumor burden, by determining the percentages of human CD19-positive cells via flow cytometry (FIG. 5C).
Human cancer cell lines were xenografted into NRG mice in the following way: Cells grown in flasks were given fresh media the night before xenograftment and seeded at 10^6 cells per mL. The next day, the cells were washed twice with DPBS without calcium or magnesium and resuspended to 1-2×10^8 cells per mL of DPBS at room temperature and immediately injected via tail vein at 100 μL per mouse. The cells were given 7-10 days to fully xenograft, after which tumor load in the blood was assessed via flow cytometry (FACSCaliber II) for human CD19+ cells (Antibody cat no. 555413, BD Parmingen). Mice with similar tumor loads were assigned to different treatment groups to decrease bias and ensure more even tumor load across treatments. Mice were treated as described in the Results section for two weeks unless otherwise indicated. Upon euthanasia, the spleen and the bone marrow were harvested and stained for human CD19, and the cells were measured by flow cytometry on the FACSCaliber II. Analysis of the flow data was done by Flowjo version 8.8.7 (BD Pharmingen).
Xenografts were done as follows: NOD. Rag1−/− IL-2rg−/− (NRG) mice obtained from the Jackson Laboratory were xenografted for one to two weeks with Non Hogdkin's Leukemia CCRFSB, Chronic lymphocytic leukemia MEC1 cells or MEC1 cells carrying the luciferase gene (MEC1_LUC). Mice were then randomly assigned to treatment or vehicle cohort, and treated for two weeks.

TM00244 = assay: PDX lung carcinoma TM00244 xenografted in NSG mice, 2DG vs glucose; format: in vivo, human; details: 200 μL of 600 mM 2DG I.P. three times weekly, 4 weeks, glycolysis-independent PDX
Text: (§3) The effects of 2DG in human lung carcinoma PDX (patient-derived xenograft) models were eventuated. While it is understood that 2DG primarily affects glycolysis, studies have shown that 2DG can interfere with other systems, such as the cell cycle, independently of its effects on metabolism (8, 32, 33). Changes in the cell cycle would affect the proliferation of cancer cells, and would ultimately influence tumor growth. To test whether 2DG affects glycolysis independently of proliferation, two PDX human lung carcinomas (TM00244 and TM00921) with similar growth kinetics (FIG. 2A) but differing in the use of glycolytic pathways (Table 1) were tested.
(§4) Tumors from these two carcinomas were xenografted into immunodeficient NOD.Scid.IL2R gamma null (NSG™) mice, and, after tumors of a measurable size (>50 mm^3) were observed, mice of each model were treated with 200 μL of either 600 mM 2DG or glucose three times weekly via I.P. injection.
(§5) Patient-derived xenograft (PDX) tumors were obtained from the JAX PDX Resource. Tumor fragments were minced separately and xenografted subcutaneously in an NSG mouse to establish P1. Upon growth of the tumor fragment, the tumor was harvested, minced, and xenografted in multiple mice to establish P2 mice. All experiments were conducted on P2 or higher mice that arose from engraftment from one of multiple tumor fragments.

thymic lymphomas = assay: 2DG I.P. in Trp53−/− mouse model of thymic lymphoma; format: in vivo
Protocol: Next, a more homogeneous and acute spontaneously arising lymphoma was tested. In addition, the extent to which 2DG could affect a purely T-cell lymphoma was tested. To meet all of these criteria, a classic mouse model of T-cell cancer, the p53-deficient mouse (31) was used. […] To test the effect of 2DG on these thymic lymphomas, […].

TM00921 = assay: PDX lung carcinoma TM00921 xenografted in NSG mice, 2DG vs glucose; format: in vivo, human; details: 200 μL of 600 mM 2DG I.P. three times weekly, 4 weeks, glycolysis-dependent PDX
Text: as §3, §4, §5

[4] = tested on: AID knock-out MEC1 (AKO) cells; assay: AKO cell xenograft in NRG mice treated with DIDS; format: in vivo, human; details: DIDS 50 mg/kg for two weeks
Protocol: (§6) Theoretically, this would result in a truncated, non-functional AID, which was termed AID knock-out MEC1 (AKO) cells. To test the dependence of DIDS on AID, AKO cells were treated with DIDS and compared their growth with that of parental MEC1 cells. […] To test whether AID sufficiency was required for DIDS efficacy in vivo, AKO and parental cells were xenografted in NRG™ mice, and mice were treated with 50 mg/kg of DIDS for two weeks. […] Thus, the therapeutic effect of DIDS in MEC1 xenografts depended on AID.
as §2

[5] = tested on: splenocytes, live white blood cells (CD45+ Ter119-PI−); assay: In vivo DIDS treatment of AID-null mice followed by ex vivo ionizing radiation of splenocytes; set-up: species or system mouse
Protocol: Whether DIDS could block repair of AID-independent double-strand breaks (frank or single-strand staggered double-strand breaks) in vivo was determined. A common way to generate double-strand breaks is via ionizing radiation (1, 38, 39). For this, AID-null mice were treated with different concentrations of DIDS (0, 5, or 10 mg/kg) for eight hours, and then harvested splenocytes and treated them with different doses of IR (0, 1, 5, 10 Gy). Eighteen hours after IR, the numbers of live white blood cells (CD45+ Ter119-PI−) were measured by flow cytometry.

[6] = tested on: AID knock-out MEC1 (AKO) cells; assay: Ex vivo growth of AID knock-out MEC1 (AKO) cells; format: cell-based, human; details: DIDS vs vehicle
Protocol: as §6
AID knock out (AKO) MEC1 cell lines were developed by targeting Exon 2 of AID with the following guide RNAs: CTTGATGAACCGGAGGAAG (SEQ ID NO: 1), GTCCGCTGGGCTAAGGGTC (SEQ ID NO: 2), GTGCTACATCCTTTTCAC (SEQ ID NO: 3). These guides were cloned into the Cas9-EGFP vector, pX330 (Addgene, Cat. no. 66582). These vectors were nucleofected into MEC1 cells using Amaxa Cell Line Nucleofector Kit V using program X-001, and according to manufacturer's instructions (Lonza, Cat. no. VACA-1003). Nucleofected cells were sorted for GFP positivity and cloned by limited dilution to generate AKO cell lines. Two independent AKO cell lines (14-1 and 14-3) were confirmed for AID nullizygosity using both genomic and transcript PCRs.

[7] = tested on: AID-positive neoplastic cell lines; details: tissue culture; reference (17); cited from earlier work
[8] = tested on: human CLL cells from patients; details: patient cells ex vivo; reference (17); cited from earlier work
[9] = one mouse, 2DG 6 g/L in water carried out to week 16
[10] = 200 μL of 600 mM 2DG I.P. three times per week for two weeks, vs glucose

OCC1O[C@H](O)C[C@@H](O)[C@@H]1O (mixture of isomers) [2DG, 2-deoxy-D-glucose]
adverse side effects by gross observation (weight loss, lethargy, lack of grooming) ([1]; 2DG 6 g/L in drinking water, at any time during treatment): no adverse side effects of this treatment were observed
time within which tumors returned ([1]; 2DG 6 g/L in drinking water, despite continuation of treatment): 5-11 weeks
mice of the six responders in which tumors returned ([1]; 2DG 6 g/L in drinking water, treatment continued): four
treatment time at which tumor regression was evident ([1]; 2DG 6 g/L in drinking water, N=7): two to three
appearance of greatly enlarged spleen (representative mouse) ([1]; FIG. 1A legend, 2DG 6 g/L in drinking water): returned to normal appearance after two weeks of treatment
fraction of mice with tumor resurgence ([1]; FIG. 1B legend, after 5-11 weeks of 2DG treatment, N=7): approximately ¾
adverse effects with prolonged 2DG exposure [1, 9]: no adverse effects were noted
tumor return under prolonged treatment [1, 9]: This tumor never returned
tumor burden (human CD19+ cells) in spleens or bone marrow (CCRF-SB cells): no significant response to 2DG
effect on MEC1 cell numbers (MEC1 cells [2]; 2DG 0.2 mM alone, 48 hours): does not have an effect on its own
tumor burden (% hCD19+) in bone marrow (MEC1 cells [3]; 2DG alone 220 mg/kg I.P. three times weekly for two weeks): elicited as much effect as the combination treatment
tumor burden (human CD19+ cells) in bone marrow (MEC1 cells [3]; [10]): significant reductions in numbers
tumor burden (human CD19+ cells) in spleen, sensitivity to 2DG (MEC1 cells [3]; [10]): those in the spleen did not
tumor size (TM00244): no difference in tumor size
duration of inactivity upon injection (thymic lymphomas; 2DG 670 mg/kg I.P.): 10 to 60 min
protection from developing neoplasms (survival curve) (thymic lymphomas; 2DG 670 mg/kg I.P. three times weekly from 14 weeks of age for 10 weeks, vs glucose): significantly protected from developing neoplasms
weight gain (thymic lymphomas; 2DG 670 mg/kg I.P. three times weekly, vs glucose-treated mice): lower weight gain compared to glucose-treated mice, although the difference did not achieve significance
tumor volume (TM00921): significantly smaller tumor volume

O=S(=O)(O)c1cc(N=C=S)ccc1/C=C/c1ccc(N=C=S)cc1S(=O)(=O)O [DIDS, 4,4′-Diisothiocyano-2,2′-stilbenedisulfonic acid]
spleen weights, AKO vs parental MEC1 [4]: AKO cells were more resistant to DIDS
tumor burden by percentages of human CD19 cells, AKO vs parental MEC1 [4]: AKO cells were more resistant to DIDS
cytotoxic effect on MEC1 B-cells (MEC1 cells [2]; DIDS 0.05 mM, 5 days, 2×10^5 cells): Cytotoxic effects of DIDS on MEC1 B-cells were seen as early as 5 days
cytotoxic effect on MEC1 B-cells (MEC1 cells [2]; DIDS 0.1 and 0.2 mM, after 5 days): significant effect was observed
cell numbers (MEC1 cells [2]; DIDS alone, titrated, day 2): reduction of cell numbers as the concentration of DIDS was increased
survival of cells after IR ([5]; DIDS 0, 5 or 10 mg/kg for eight hours in AID-null mice, IR 0, 1, 5, 10 Gy ex vivo, eighteen hours after IR): in the presence of DIDS, the effect is significantly greater
cell ablation at 10 Gy, normalized to 0 mg/Kg DIDS ([5]; IR 10 Gy, DIDS 5 or 10 mg/kg): even a tenth of the dose of DIDS can synergistically enhance the severity of cell ablation
mice showing significant (p=0.001) reduction in number of MEC1 cells in the spleen (MEC1 cells [3]; DIDS 50 mg/kg once per week for two weeks, vs vehicle): 10/11
tumor burden in vivo (luciferase imaging, flow cytometry of bone marrow and spleen) (MEC1 cells [3]; FIG. 10 legend, MEC1 or MEC1 LUC, DIDS 50 mg/kg for two weeks): a high dose of DIDS is required to reduce tumor burden in vivo
growth rate of AKO cells [6]: grew at a similar rate regardless of whether the cells were treated with vehicle or DIDS
targeting of AID-positive neoplastic cell lines [7]: could specifically target AID-positive neoplastic cell lines in tissue culture
targeting of AID-positive vs AID-negative human CLL cells [8]: targeted AID-positive, but not AID-negative, human CLL cells
